Measurements: publication PMC6478789, “A chemical toolbox for the study of bromodomains and epigenetic signaling” (Nature Communications, 2019)

What was measured:
PCAF = target: T1, PCAF (Homo sapiens, UniProt Q92831); parameters: purchased; method as in ref 2 (suppl.), 26 (main text); details: BROMOscan; ref 2 (suppl.), 26; cited from earlier work
T1 sequence (Q92831 723-827 limits assumed): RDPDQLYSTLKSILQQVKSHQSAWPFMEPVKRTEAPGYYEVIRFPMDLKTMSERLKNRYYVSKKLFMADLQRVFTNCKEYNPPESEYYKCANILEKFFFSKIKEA

GCN5L2 = target: T2, GCN5L2 (Homo sapiens, UniProt Q92830); parameters: purchased; method as in ref 2 (suppl.), 26 (main text); details: BROMOscan; ref 2 (suppl.), 26; read-out: KD (nM), GCN5; cited from earlier work
T2 sequence (Q92830 728-832 limits assumed): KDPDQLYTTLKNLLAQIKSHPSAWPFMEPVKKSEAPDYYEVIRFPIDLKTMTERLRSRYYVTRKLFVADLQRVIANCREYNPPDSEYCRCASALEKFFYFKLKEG

GCN5 = target: GCN5; parameters: method as in ref 1 (suppl.), 25 (main text); details: ITC data; ref 1 (suppl.), 25; cited from earlier work
MDA-MB-436 cells [1] = experiment: Confluency with BRPF inhibitors and BAY-876; assay type: cell-based, human; details: 3 μM, 7 days
Procedure: Graph indicates mean, error bars denote s.d. from eight wells (from two independent assays) and p-value was computed using the Benjamini-Hochberg t test; ***p < 0.001. d Immunoblot validation of BRPF knockdown in MDA-MB-436 cells. e Quantitative real-time PCR (RT-qPCR) validation of BRPF knockdown in MDA-MB-436 cells. […] Raw data images are available in Supplementary Fig. 4
TNBC cell lines were seeded in sterile, transparent 384-well plates at 500 cells per well in 50 µl media. Chemical probes were delivered in dimethyl sulfoxide (DMSO). Cell confluency at 7 days was evaluated using an Incucyte ZOOM live cell imaging device (Essen Bioscence) and analyzed with the Incucyte ZOOM (2016A) software based on phase contrast image.

MDA-MB-436 cells [2] = experiment: NAD+/NADH ratio measurement assay; assay type: cell-based, human; details: BAY-876, 5 days
Procedure: (§1) Cells were seeded in six-well plates followed by overnight incubation. The next day, cells were treated with DMSO or the indicated concentration of BAY-876. After 5 days, cells were lysed, and intracellular metabolites were measured using commercial kits detecting acetyl-CoA (PicoProbe, Abcam ab87546) and NAD^+/NADH ratio (Abcam 65348).

TNBC cells = experiment: Colony formation assay; assay type: cell-based, human; details: 3 µM, 2 weeks
Procedure: Colony formation studies were performed with TNBC cells on treatment with DMSO or the indicated concentrations of BAY-876. Cells were seeded into 6-well plates at 200 cells per well and left to adhere overnight. Then, cells were treated with DMSO or 3 µM BAY-876. After 2 weeks, the cells were stained with crystal violet and imaged.

MDA-MB-436 cells [3] = experiment: Acetyl-CoA measurement assay; assay type: cell-based, human; details: BAY-876, 5 days
Procedure: as §1

MDA-MB-436 cells [4] = experiment: Glucose uptake assay; assay type: cell-based, human; details: 3 µM BAY-876, 5 days
Procedure: Glucose uptake was assayed according to the established protocol from a commercial glucose uptake kit (ab136955; Abcam). In brief, MDA-MB-436 cells were seeded in six-well plates followed by overnight incubation. The next day cells were treated with DMSO or indicated concentration of BAY-876. After 5 days, cells were washed three times with cold phosphate-buffered saline (PBS) and lysed with extraction buffer, frozen at −80 °C for 10 min and heated at 85 °C for 40 min. After cooling on ice for 5 min, the lysates were neutralized by adding neutralization buffer and centrifuged. The remaining lysate was then diluted with assay buffer. Finally, the colorimetric endproduct generation was set up by two amplification steps according to the manufacturer’s instructions in the kit and then detected at 412 nm using iMark microplate reader (Bio-Rad).

## CN1C[C@H](Nc2cnn(C)c(=O)c2Br)C[C@H](c2ccccc2)C1 [GSK4027]
PCAF
  Kd: 1.4 nM
GCN5L2
  Kd: 1.4 nM

## Cc1nnc2c3ccccc3c(N[C@@H](C)[C@H](c3ccccc3)N(C)C)nn12 [L-Moses]
GCN5
  Kd: 600 nM

## COc1cc2c(cc1NS(=O)(=O)c1ccc(Br)cc1C)n(C)c(=O)n2C [OF-1]
MDA-MB-436 cells [1]
  cell viability, co-treatment with BAY-876: strongest reduction of cell viability

## Cc1c(NC(=O)c2cc(C(N)=O)nc3cc(F)ccc23)c(C(F)(F)F)nn1Cc1ccc(C#N)cc1 [BAY-876]
MDA-MB-436 cells [2]
  NAD+/NADH ratio: increase
TNBC cells
  cell growth (colony formation): no overt effect on cell growth
MDA-MB-436 cells [3]
  absolute acetyl-CoA level: decrease
MDA-MB-436 cells [4]
  glucose uptake: inhibits glucose uptake
